Experimental data taken from ChEMBL document CHEMBL2074058, “Regulation by dexamethasone of P-glycoprotein expression in cultured rat hepatocytes” (FEBS Lett, 1993).

Assays:
[1] = biological target: Multidrug resistance protein 1a (Rattus norvegicus) (UniProt Q6PSM0); test: TP_TRANSPORTER: Western blot, primary hepatocytes; assay type: functional, cell-based; details: Hepatocyte
[2] = biological target: Multidrug resistance protein 1a (Rattus norvegicus) (UniProt Q6PSM0); test: TP_TRANSPORTER: Northern blot from primary hepatocytes; assay type: functional, cell-based; details: Hepatocyte

Multidrug resistance protein 1a (Rattus norvegicus), sequence (Q6PSM0 as listed by the source): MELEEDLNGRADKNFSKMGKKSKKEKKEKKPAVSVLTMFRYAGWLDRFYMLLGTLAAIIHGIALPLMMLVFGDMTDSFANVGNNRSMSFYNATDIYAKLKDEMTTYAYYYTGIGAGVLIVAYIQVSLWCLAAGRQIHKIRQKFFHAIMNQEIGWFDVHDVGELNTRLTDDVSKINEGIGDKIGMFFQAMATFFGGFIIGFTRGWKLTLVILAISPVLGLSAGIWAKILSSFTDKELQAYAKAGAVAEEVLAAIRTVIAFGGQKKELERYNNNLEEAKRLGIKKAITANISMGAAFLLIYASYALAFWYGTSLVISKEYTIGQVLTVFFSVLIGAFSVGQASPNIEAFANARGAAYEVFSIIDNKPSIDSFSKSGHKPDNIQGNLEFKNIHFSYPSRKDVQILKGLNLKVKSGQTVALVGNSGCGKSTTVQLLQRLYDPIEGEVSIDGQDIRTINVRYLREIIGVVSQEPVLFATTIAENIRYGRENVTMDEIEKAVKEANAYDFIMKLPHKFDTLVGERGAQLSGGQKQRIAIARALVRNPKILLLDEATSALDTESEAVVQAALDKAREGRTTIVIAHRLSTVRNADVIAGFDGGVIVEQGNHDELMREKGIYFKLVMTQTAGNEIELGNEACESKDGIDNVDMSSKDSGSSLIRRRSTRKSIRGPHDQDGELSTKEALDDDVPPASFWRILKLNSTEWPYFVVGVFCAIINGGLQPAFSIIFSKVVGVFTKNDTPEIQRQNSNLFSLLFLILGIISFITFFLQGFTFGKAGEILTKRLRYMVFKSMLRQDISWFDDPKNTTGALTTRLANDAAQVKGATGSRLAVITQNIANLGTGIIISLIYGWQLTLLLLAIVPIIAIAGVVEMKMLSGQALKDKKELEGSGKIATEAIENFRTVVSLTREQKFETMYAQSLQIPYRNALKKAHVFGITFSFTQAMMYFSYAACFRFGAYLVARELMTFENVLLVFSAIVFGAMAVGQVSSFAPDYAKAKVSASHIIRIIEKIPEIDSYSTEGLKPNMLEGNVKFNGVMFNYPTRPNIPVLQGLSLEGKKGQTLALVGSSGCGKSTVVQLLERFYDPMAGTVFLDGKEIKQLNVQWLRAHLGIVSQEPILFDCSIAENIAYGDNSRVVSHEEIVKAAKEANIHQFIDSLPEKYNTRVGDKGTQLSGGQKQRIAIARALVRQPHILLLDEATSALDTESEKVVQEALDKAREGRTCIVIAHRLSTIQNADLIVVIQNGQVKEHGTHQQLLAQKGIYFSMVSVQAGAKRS

- Activity [1]: inducer [Decrease]
- Activity [2]: inducer [Decrease]
SMILES: C[C@@H]1C[C@H]2[C@@H]3CCC4=CC(=O)C=C[C@]4(C)[C@@]3(F)[C@@H](O)C[C@]2(C)[C@@]1(O)C(=O)CO
